According to BindingDB's records for doi:10.1016/j.bmcl.2005.11.096 (Glaxosmithkline, 2006):

experiment: Agonist activity as induced proliferation in Ba/F3-hTpoR murine lymphocyte expressing human TPOR

Row | SMILES | EC50
1 | CC(C)(C)c1ccc(-c2cccc(-c3nc4ccc(CC(C(=O)O)C(=O)O)cc4[nH]3)n2)cc1 [2-((2-(6-(4-tert-butylphenyl)pyridin-2-yl)-1H-benzo[d]imidazol-5-yl)methyl)malonic acid] | 10000 nM
2 | CC(=Cc1ccc2nc(-c3cccc(-c4ccc(C(C)(C)C)cc4)n3)[nH]c2c1)C(=O)O [3-(2-(6-(4-tert-butylphenyl)pyridin-2-yl)-1H-benzo[d]imidazol-5-yl)-2-methylacrylic acid] | 4500 nM
3 | Cc1ccc(-c2csc(-c3nc4ccc(C=C5SC(S)=NC5=O)cc4[nH]3)c2)cc1C [5-((2-(4-(3,4-dimethylphenyl)thiophen-2-yl)-1H-benzo[d]imidazol-5-yl)methylene)-2-thioxothiazolidin-4-one] | 780 nM
4 | Cc1ccc(-c2ccc(-c3nc4ccc(C=C5SC(S)=NC5=O)cc4[nH]3)s2)cc1C [5-((2-(5-(3,4-dimethylphenyl)thiophen-2-yl)-1H-benzo[d]imidazol-5-yl)methylene)-2-thioxothiazolidin-4-one] | 1750 nM
5 | CC(C)(C)c1ccc(-c2ccc(-c3nc4ccc(C=C5SC(=S)NC5=O)cc4[nH]3)o2)cc1 [5-((2-(5-(4-tert-butylphenyl)furan-2-yl)-1H-benzo[d]imidazol-5-yl)methylene)-2-thioxothiazolidin-4-one] | 720 nM

Results, then the compound that gave them:

Row | EC50 | SMILES
6 | 1600 nM | Cc1ccc(-c2cccc(-c3nc4ccc(C=C5SC(S)=NC5=O)cc4[nH]3)n2)cc1C [5-((2-(6-(3,4-dimethylphenyl)pyridin-2-yl)-1H-benzo[d]imidazol-5-yl)methylene)-2-thioxothiazolidin-4-one]
7 | 2000 nM | CC(C)(C)c1ccc(-c2cccc(-c3nc4ccc(C=C5SC(S)=NC5=O)cc4[nH]3)n2)cc1 [5-((2-(6-(4-tert-butylphenyl)pyridin-2-yl)-1H-benzo[d]imidazol-5-yl)methylene)-2-thioxothiazolidin-4-one]
8 | 900 nM | CC(C)(C)c1ccc(-c2cccc(-c3nc4ccc(C=C5SC(=S)NC5=O)cc4[nH]3)c2)cc1 [5-[1-[2-(4'-tert-Butyl-biphenyl-3-yl)-1H-benzoimidazol-5-yl]-methylidene]-2-thioxo-thiazolidin-4-one]
